How the values were obtained:
TrkB = target: T1, TrkB (Homo sapiens, UniProt Q16620); assay: Enzyme Fragment Complementation cell-based assay, TrkB; settings: U2OS-cells over-expressing TrkB; ligand 10 ng/mL; 3 hours incubation
T1 construct: expressed in transfected cells; host or cells: U2OS
Text: (§1) A high throughput cell-based screen has been used to identify positive modulators of TrkA, TrkB and TrkC. The screen involves the use of cell-based assay overexpressing TrkA, TrkB or TrkC. The purpose of the assay is to identify compounds that modulate neurotrophin signalling (Forsell et al 2012). The assay can be used in inhibitor mode using a high concentration of ligand, in modulator mode using an intermediate concentration and in agonist mode using a low concentration of ligand.
(§2) The assay uses Enzyme Fragment Complementation (EFC) technique, which is a proximity-based assay. Briefly, cells used in this assay over-express two fusion proteins, i.e. the receptor, which can be either one of TrkA, TrkB, TrkC, IGF1R or FGFR1, fused to a small peptide of beta-galactosidase and an adaptor protein, i.e. SHC1 (or any other Trk-adaptor protein) fused to the major part of beta-galactosidase. […] The proximity between the small activating peptide on the receptor and the major part of beta-galactosidase on the adaptor protein leads to an active beta-galactosidase enzyme. The activation of the receptor is quantified by measuring the amount of active beta-galactosidase by its conversion of a non-luminescent substrate into a luminescent product.
(§3) U2OS-cells, over-expressing TrkA or TrkB or TrkC, are plated in 96- or 384-well plates and incubated overnight. Alternatively, cryopreserved HEK293-cells expressing IGFR1 or cryopreserved U2OS-cells expressing FGFR1 were plated in 96- or 384-well plates. On the following day, test compound was pre-mixed with ligand (NGF, BDNF, NT-3, IGF-1 or basic fibroblast growth factor (bFGF(FGF-2))) and the ligand-compound mixture is then added to the cells to yield a final ligand concentration of 10 ng/mL. After 3 hours of incubation at room temperature, the incubation is stopped by the addition of a beta-galactosidase substrate mixture containing detergents. The substrate mixture is incubated for 60 minutes at ambient temperature. The luminescence is thereafter read by the use of a plate reader.

TrkA = target: T2, TrkA (Homo sapiens, UniProt P04629); assay: Enzyme Fragment Complementation cell-based assay, TrkA; settings: U2OS-cells over-expressing TrkA; ligand 10 ng/mL; 3 hours incubation
T2 construct: expressed in transfected cells; host or cells: U2OS
Text: as §1, §2, §3

T2 sequence (P04629 33-796): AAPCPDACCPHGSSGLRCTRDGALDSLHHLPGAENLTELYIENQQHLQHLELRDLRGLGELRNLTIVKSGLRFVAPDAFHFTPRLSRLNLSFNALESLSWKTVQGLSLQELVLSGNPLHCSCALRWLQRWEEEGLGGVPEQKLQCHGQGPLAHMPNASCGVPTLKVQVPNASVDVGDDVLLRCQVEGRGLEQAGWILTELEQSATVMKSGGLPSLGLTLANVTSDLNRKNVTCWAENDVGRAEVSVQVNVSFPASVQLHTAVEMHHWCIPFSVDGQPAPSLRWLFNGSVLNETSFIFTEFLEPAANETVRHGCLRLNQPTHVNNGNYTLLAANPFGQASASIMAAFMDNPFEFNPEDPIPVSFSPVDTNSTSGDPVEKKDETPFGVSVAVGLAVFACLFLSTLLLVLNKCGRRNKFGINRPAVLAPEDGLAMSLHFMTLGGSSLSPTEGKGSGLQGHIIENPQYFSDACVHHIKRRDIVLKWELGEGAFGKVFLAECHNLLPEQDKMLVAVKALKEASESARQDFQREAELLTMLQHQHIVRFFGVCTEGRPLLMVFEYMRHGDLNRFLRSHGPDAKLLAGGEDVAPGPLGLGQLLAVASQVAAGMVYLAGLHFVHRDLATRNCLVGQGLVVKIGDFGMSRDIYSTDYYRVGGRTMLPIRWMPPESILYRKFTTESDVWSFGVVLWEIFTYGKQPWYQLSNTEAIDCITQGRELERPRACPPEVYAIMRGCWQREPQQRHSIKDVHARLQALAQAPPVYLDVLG
T1 sequence (Q16620 32-822): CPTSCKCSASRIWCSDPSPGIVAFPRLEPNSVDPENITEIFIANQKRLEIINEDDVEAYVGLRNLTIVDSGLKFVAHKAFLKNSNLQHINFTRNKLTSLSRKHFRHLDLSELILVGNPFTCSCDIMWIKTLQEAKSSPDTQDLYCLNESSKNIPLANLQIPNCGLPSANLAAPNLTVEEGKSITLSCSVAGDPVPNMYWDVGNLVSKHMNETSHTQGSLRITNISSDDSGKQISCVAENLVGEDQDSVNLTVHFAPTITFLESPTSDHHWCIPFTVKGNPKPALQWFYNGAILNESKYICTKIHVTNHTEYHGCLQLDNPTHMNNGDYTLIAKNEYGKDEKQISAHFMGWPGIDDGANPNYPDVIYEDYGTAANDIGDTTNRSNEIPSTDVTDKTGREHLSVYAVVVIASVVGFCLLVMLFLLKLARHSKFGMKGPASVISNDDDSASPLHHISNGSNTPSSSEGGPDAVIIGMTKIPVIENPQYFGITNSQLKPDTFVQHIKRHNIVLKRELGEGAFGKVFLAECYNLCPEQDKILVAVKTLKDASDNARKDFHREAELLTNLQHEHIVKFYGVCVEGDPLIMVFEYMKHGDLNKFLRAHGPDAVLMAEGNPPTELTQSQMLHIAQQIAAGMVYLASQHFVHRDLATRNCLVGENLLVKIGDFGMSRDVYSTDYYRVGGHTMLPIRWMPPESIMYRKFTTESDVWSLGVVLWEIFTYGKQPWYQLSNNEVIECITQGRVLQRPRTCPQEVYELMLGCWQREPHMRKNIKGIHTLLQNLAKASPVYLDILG

Compound `Cc1cc(-n2c(=O)[nH]c(=O)n(-c3ccc4[nH]ccc4c3)c2=O)ccc1Oc1ccccc1` [Example 47, 1-(1H-indol-5-yl)-3-(3-methyl-4-phenoxyphenyl)-1,3,5-triazinane-2,4,6-trione] has an EC50 (TrkB) of 270 nM and an EC50 (TrkA) of 480 nM.

`CN(C)C(=O)COc1cc(-n2c(=O)[nH]c(=O)n(-c3ccccc3)c2=O)ccc1Oc1ccccc1` [Example 77, 1-{3-[2-(Dimethylamino)-2-oxoethoxy]-4-phenoxyphenyl}-3-phenyl-1,3,5-triazinane-2,4,6-trione] gave an EC50 (TrkB) of 360 nM and an EC50 (TrkA) of 430 nM.

In the case of `COc1ccc(-n2c(=O)[nH]c(=O)n(-c3ccc(Oc4ccccc4)c(OC)c3)c2=O)cc1` [Example 53, 1-(3-methoxy-4-phenoxyphenyl)-3-(4-methoxyphenyl)-1,3,5-triazinane-2,4,6-trione], the EC50 (TrkB) is reported as 780 nM and the EC50 (TrkA) is reported as 960 nM.

For `Cc1cc(-n2c(=O)[nH]c(=O)n(-c3ccccc3)c2=O)ccc1Cc1ccccc1` [Example 42, 1-(4-benzyl-3-methylphenyl)-3-phenyl-1,3,5-triazinane-2,4,6-trione], the EC50 (TrkB) was 280 nM and the EC50 (TrkA) was 190 nM.

Work on `Cc1cc(-n2c(=O)[nH]c(=O)n(-c3ccccc3)c2=O)c(C)cc1Oc1ccccc1` [Example 54, 1-(2,5-dimethyl-4-phenoxyphenyl)-3-phenyl-1,3,5-triazinane-2,4,6-trione] yielded an EC50 (TrkB) of 310 nM and an EC50 (TrkA) of 440 nM.

`COc1cc(-n2c(=O)[nH]c(=O)n(-c3ccccc3)c2=O)cc(C)c1Oc1ccccc1` [Example 14, 1-(3-methoxy-5-methyl-4-phenoxyphenyl)-3-phenyl-1,3,5-triazinane-2,4,6-trione] gave an EC50 (TrkA) of 490 nM.

`COC(=O)c1cc(-n2c(=O)[nH]c(=O)n(-c3ccccc3)c2=O)ccc1Oc1ccccc1` [Example 74, methyl 2-phenoxy-5-(2,4,6-trioxo-3-phenyl-1,3,5-triazinan-1-yl)benzoate] was tested, and the EC50 (TrkB) was 540 nM and the EC50 (TrkA) was 580 nM.

In the case of `N#Cc1cccc(-n2c(=O)[nH]c(=O)n(-c3ccc(Oc4ccccc4)cc3)c2=O)c1` [Example 3, 3-[2,4,6-trioxo-3-(4-phenoxyphenyl)-1,3,5-triazinan-1-yl]benzonitrile], the EC50 (TrkA) is reported as 6700 nM.

With `COc1c(-n2c(=O)[nH]c(=O)n(-c3ccccc3)c2=O)ccc(Oc2ccccc2)c1C` [Example 33, 1-(2-methoxy-3-methyl-4-phenoxyphenyl)-3-phenyl-1,3,5-triazinane-2,4,6-trione] the EC50 (TrkB) was 100 nM and the EC50 (TrkA) was 230 nM.

In the case of `Cc1cc(-n2c(=O)[nH]c(=O)n(-c3ccc4c(c3)OCO4)c2=O)ccc1Oc1ccccc1` [Example 48, 1-(2H-1,3-benzodioxol-5-yl)-3-(3-methyl-4-phenoxyphenyl)-1,3,5-triazinane-2,4,6-trione], the EC50 (TrkB) is reported as 260 nM and the EC50 (TrkA) is reported as 500 nM.

`O=c1[nH]c(=O)n(-c2ccc(Oc3ccccc3)c(CO)c2)c(=O)n1-c1ccccc1` [Example 75, 1-[3-(hydroxymethyl)-4-phenoxyphenyl]-3-phenyl-1,3,5-triazinane-2,4,6-trione] gave an EC50 (TrkB) of 1800 nM and an EC50 (TrkA) of 1170 nM.

With `COCCOc1cc(-n2c(=O)[nH]c(=O)n(-c3ccc(OC)cc3)c2=O)ccc1Oc1ccccc1` [Example 60, 1-[3-(2-methoxyethoxy)-4-phenoxyphenyl]-3-(4-methoxyphenyl)-1,3,5-triazinane-2,4,6-trione] the EC50 (TrkB) was 220 nM and the EC50 (TrkA) was 300 nM.

With `Cc1cc(-n2c(=O)[nH]c(=O)n(-c3cccc(Cl)c3)c2=O)ccc1Oc1ccccc1` [Example 43, 1-(3-chlorophenyl)-3-(3-methyl-4-phenoxyphenyl)-1,3,5-triazinane-2,4,6-trione] the EC50 (TrkB) was 120 nM and the EC50 (TrkA) was 160 nM.

`COCCOc1cc(-n2c(=O)[nH]c(=O)n(-c3ccc(C)s3)c2=O)ccc1Oc1ccccc1` [Example 66, 1-[3-(2-methoxyethoxy)-4-phenoxyphenyl]-3-(5-methylthiophen-2-yl)-1,3,5-triazinane-2,4,6-trione] gave an EC50 (TrkB) of 370 nM and an EC50 (TrkA) of 370 nM.

`CN(C)C(=O)Cc1cc(-n2c(=O)[nH]c(=O)n(-c3ccccc3)c2=O)ccc1Oc1ccccc1` [Example 76, 1-{3-[2-(Dimethylamino)-2-oxoethyl]-4-phenoxyphenyl}-3-phenyl-1,3,5-triazinane-2,4,6-trione] showed an EC50 (TrkB) of 4530 nM and an EC50 (TrkA) of 33000 nM.

In the case of `COc1cc(Oc2ccccc2)c(C)cc1-n1c(=O)[nH]c(=O)n(-c2ccccc2)c1=O` [Example 13, 1-(2-methoxy-5-methyl-4-phenoxyphenyl)-3-phenyl-1,3,5-triazinane-2,4,6-trione], the EC50 (TrkB) is reported as 450 nM and the EC50 (TrkA) is reported as 620 nM.

Work on `O=c1[nH]c(=O)n(-c2ccc3c(cnn3-c3ccccc3)c2)c(=O)n1-c1ccccc1` [Example 19, 1-phenyl-3-(1-phenyl-1H-indazol-5-yl)-1,3,5-triazinane-2,4,6-trione] yielded an EC50 (TrkB) of 880 nM and an EC50 (TrkA) of 820 nM.

In the case of `Cc1cc(-n2c(=O)[nH]c(=O)n(-c3cccc4ccoc34)c2=O)ccc1Oc1ccccc1` [Example 73, 1-(1-benzofuran-7-yl)-3-(3-methyl-4-phenoxyphenyl)-1,3,5-triazinane-2,4,6-trione], the EC50 (TrkB) is reported as 100 nM and the EC50 (TrkA) is reported as 140 nM.

`COc1cccc(-n2c(=O)[nH]c(=O)n(-c3ccc(Oc4ccccc4)c(C)c3)c2=O)c1` [Example 50, 1-(3-methoxyphenyl)-3-(3-methyl-4-phenoxyphenyl)-1,3,5-triazinane-2,4,6-trione] gave an EC50 (TrkB) of 190 nM and an EC50 (TrkA) of 310 nM.

`COc1cc(-n2c(=O)[nH]c(=O)n(C)c2=O)cc(C)c1Oc1ccccc1` [Example 32, 1-(3-methoxy-5-methyl-4-phenoxyphenyl)-3-methyl-1,3,5-triazinane-2,4,6-trione] showed an EC50 (TrkA) of 800 nM.

With `Cc1cc(-n2c(=O)[nH]c(=O)n(-c3cccc(OC(F)(F)F)c3)c2=O)ccc1Oc1ccccc1` [Example 44, 1-(3-methyl-4-phenoxyphenyl)-3-[3-(trifluoromethoxy)phenyl]-1,3,5-triazinane-2,4,6-trione] the EC50 (TrkB) was 260 nM and the EC50 (TrkA) was 330 nM.

With `Cc1ccc(-n2c(=O)[nH]c(=O)n(-c3cnc(Oc4ccccc4)c(C)c3)c2=O)cc1` [Example 78, 1-(5-Methyl-6-phenoxypyridin-3-yl)-3-(p-tolyl)-1,3,5-triazinane-2,4,6-trione] the EC50 (TrkB) was 3830 nM and the EC50 (TrkA) was 3510 nM.

`Cc1ccc(-n2c(=O)[nH]c(=O)n(-c3ccc(Oc4ccccc4)cc3C)c2=O)cc1` [Example 71, 1-(2-methyl-4-phenoxyphenyl)-3-(4-methylphenyl)-1,3,5-triazinane-2,4,6-trione] was tested, and the EC50 (TrkB) was 610 nM and the EC50 (TrkA) was 1660 nM.

Compound `Cc1cc(-n2c(=O)[nH]c(=O)n(-c3ccc4occc4c3)c2=O)ccc1Oc1ccccc1` [Example 46, 1-(1-benzofuran-5-yl)-3-(3-methyl-4-phenoxyphenyl)-1,3,5-triazinane-2,4,6-trione] has an EC50 (TrkB) of 240 nM and an EC50 (TrkA) of 480 nM.

`Cc1cc(-n2c(=O)[nH]c(=O)n(-c3ccc(Oc4ccccc4)c(C)c3)c2=O)ccc1Oc1ccccc1` [Example 67, 1,3-bis(3-methyl-4-phenoxyphenyl)-1,3,5-triazinane-2,4,6-trione] was tested, and the EC50 (TrkB) was 26000 nM and the EC50 (TrkA) was 3200 nM.

In the case of `Cc1ccccc1Oc1ccc(-n2c(=O)[nH]c(=O)n(-c3ccccc3)c2=O)cc1C` [Example 62, 1-[3-methyl-4-(2-methylphenoxy)phenyl]-3-phenyl-1,3,5-triazinane-2,4,6-trione], the EC50 (TrkB) is reported as 3180 nM and the EC50 (TrkA) is reported as 930 nM.

`COc1ccccc1-n1c(=O)[nH]c(=O)n(-c2ccc(Oc3ccccc3)c(C)c2)c1=O` [Example 51, 1-(2-methoxyphenyl)-3-(3-methyl-4-phenoxyphenyl)-1,3,5-triazinane-2,4,6-trione] was tested, and the EC50 (TrkB) was 260 nM and the EC50 (TrkA) was 180 nM.

`Cc1cc(-n2c(=O)[nH]c(=O)n(-c3ccccn3)c2=O)ccc1Oc1ccccc1` [Example 18, 1-(3-methyl-4-phenoxyphenyl)-3-(pyridin-2-yl)-1,3,5-triazinane-2,4,6-trione] was tested, and the EC50 (TrkB) was 140 nM and the EC50 (TrkA) was 870 nM.

`COc1ccc(-n2c(=O)[nH]c(=O)n(-c3ccc(Oc4ccccc4)cc3)c2=O)cc1` [Example 2, 1-(4-methoxyphenyl)-3-(4-phenoxyphenyl)-1,3,5-triazinane-2,4,6-trione] was tested, and the EC50 (TrkB) was 2400 nM and the EC50 (TrkA) was 1400 nM.

`Cc1cc(-n2c(=O)[nH]c(=O)n(-c3ccc(F)cc3)c2=O)ccc1Oc1ccccc1` [Example 45, 1-(4-fluorophenyl)-3-(3-methyl-4-phenoxyphenyl)-1,3,5-triazinane-2,4,6-trione] showed an EC50 (TrkB) of 360 nM and an EC50 (TrkA) of 470 nM.

In the case of `Cc1cc(Oc2ccccc2)ccc1-n1c(=O)[nH]c(=O)n(-c2ccccc2)c1=O` [Example 70, 1-(2-methyl-4-phenoxyphenyl)-3-phenyl-1,3,5-triazinane-2,4,6-trione], the EC50 (TrkB) is reported as 350 nM and the EC50 (TrkA) is reported as 660 nM.

`COc1cccc(-n2c(=O)[nH]c(=O)n(-c3ccc(Oc4ccccc4)c(OC)c3)c2=O)c1` [Example 52, 1-(3-methoxy-4-phenoxyphenyl)-3-(3-methoxyphenyl)-1,3,5-triazinane-2,4,6-trione] was tested, and the EC50 (TrkB) was 410 nM and the EC50 (TrkA) was 380 nM.
